From US11441144B2, “Methods of polynucleotide preparation using multivalent cation salt compositions” (Geron Corporation, priority 2015, dated 2022)

Test: Solubility of precipitate in 0.1M NaOH
Type: physicochemical
Settings: salts precipitated in a large excess of salt reagent
Description: The crystallization or precipitation of divalent or trivalent forms of Imetelstat was investigated using a large excess of inorganic salts of interest (900 equivalents, weight base). […] Three types of Imetelstat solution: crude Imetelstat solution (ammonium salt), purified Imetelstat (triethylammonium (TEA) salt form), and Imetelstat sodium (Na salt form), were mixed with each salt solution.
The solubilities of the precipitates isolated under the conditions of large excess of salt regent were initially investigated using the following solvents: water, acetonitrile, MeOH, EtOH, IPA (isopropyl alcohol), 0.1M NaOH, 0.1M HCl, 1M NaCl, and NMP.
(see Table 2). Solubility studies of Imetelstat precipitate obtained from a large excess of magnesium salt reagent were conducted in 1M NaCl solutions at different concentrations (2 mg/mL to 6 mg/mL) and under different pH conditions (pH 8, 9, 10, 11, 12) and analyzed by HPLC (see chromatograms of FIG. 1).

Substance: BaCl2
- Solubility in a 0.1M NaOH and 1M NaCl solution: soluble
